Laboratory results: patent US20120039954A1, “METHOD OF TREATING INSOMNIA” (SOMNUS THERAPEUTICS, INC., priority 2008, published 2012)

Experiment: Drug plasma levels in the Example 9 trial
Conditions: 10 mg single oral dose
Source text: Non-elderly adults were enrolled in a cross-over, double-blind trial. […] Drug plasma levels were obtained at the same times.

CCN(C(C)=O)c1cccc(-c2ccnc3c(C#N)cnn23)c1 [zaleplon, N-[3-(3-cyanopyrazole[1,5-a]pyrimidin-7-yl)phenyl]-N-ethylacetamide]
Time post-dose at which drug plasma levels peaked: 1.5 h
